Series [1] deals with HIV-1 Reverse Transcriptase (RT) (Human immunodeficiency virus type 1 group M subtype B, UniProt P04585). The series can be described thus: biochemical. Type of series: biochemical.
Series [2] in a line: Cytotoxicity. The class given is cell-based. The settings on record: human, TZM-bl cells, TZMb-l CC50, TZM-bl cells, 3 days, MTS; mean ± SD, n=3.
Series [3] is described as follows: Cytotoxicity. Type of series: cell-based, human. To be noted: human, MT-2 cells, MT-2 CC50, MT-2 cells, MTS; mean ± SD, n=3.
Series [4] relates to pseudovirus HIV-1HXB2. Nature of the series: Single-cycle infection assay in TZM-bl cells. To be noted: for antiviral activity (in words): SAR discussion of Table 1.
Series [5] has as its system TZM-bl cells. The series can be described thus: Cytotoxicity. Type of series: cell-based. To be noted: for CC50: read-out: TZMb-l CC50, TZM-bl cells, 3 days, MTS, mean ± SD, n=3; for cytotoxicity higher compared with the parent compounds: compared with NBD-14122 / NBD-14123; for cytotoxicity became higher: di-fluoro at position 2 of 1,3-benzodioxole, versus non-fluorinated compounds.

Series [6] concerns HIV-1IIIB. The series can be described thus: Multi-cycle infection assay in MT-2 cells. Type of series: cell-based. The settings on record: read-out: MT-2 IC50, p24, mean ± SD, n=3.
Series [7] deals with MT-2 cells. The series can be described thus: Cytotoxicity. Type of series: cell-based, human. The settings on record: read-out: MT-2 CC50, MTS, mean ± SD, n=3.

From paper PMC6446940 (ChemMedChem, 2018) come the findings set out here.

As a reminder, the IC50 is the concentration that inhibits the measured activity by half. The term CC50 denotes the concentration giving 50% cytotoxicity.

In series [1] (HIV-1 Reverse Transcriptase, mean ± SD, n=3), `CC1(C)CC(NC(=O)C(=O)Nc2ccc(Cl)cc2)CC(C)(C)N1` [NBD-556, reference compound] yielded a half-maximal inhibitory concentration (IC50) greater than 300 µM. Besides, the “activity against HIV-1 RT” value in series [1] (at 300 μM) is recorded as “no activity”.
For `Cc1nc(C(CN)NC(=O)C(=O)Nc2ccc3c(c2)OCO3)sc1CO` (stereo not drawn) [NBD-14108, N1-(2-amino-1-(5-(hydroxymethyl)-4-methylthiazol-2-yl)ethyl)-N2-(benzo[d][1,3]dioxol-5-yl)oxalamide], the 50% cytotoxic concentration (CC50) at 3 days in series [2] is no less than 750 µM. In addition, the CC50 at 4 days in series [3] is no less than 650 µM. Besides, the “antiviral activity (in words)” value in series [4] was “completely lost”.
As to `Cc1nc(C(CN)NC(=O)c2ccc(-c3ccc4c(c3)OCO4)[nH]2)sc1CO` (stereo not drawn) [NBD-14111, N-(2-amino-1-(5-(hydroxymethyl)-4-methylthiazol-2-yl)ethyl)-5-(benzo[d][1,3]dioxol-5-yl)-1H-pyrrole-2-carboxamide], the CC50 in series [5] was determined as 146 ± 5.2 µM; in series [7], 170 ± 9 µM. The 50% inhibitory concentration (IC50) in series [6] came to 9.8 ± 4.8 µM. Besides, in series [4], the “antiviral activity (in words)” value was “lost its antiviral activity”.
Regarding `Cc1nc(C(NC(=O)c2ccc(-c3ccc4c(c3)OCO4)[nH]2)C(C)(C)N)sc1CO` (stereo not drawn) [NBD-14116, N-(2-amino-1-(5-(hydroxymethyl)-4-methylthiazol-2-yl)-2-methylpropyl)-5-(benzo[d][1,3]dioxol-5-yl)-1H-pyrrole-2-carboxamide], the CC50 at 3 days in series [2] was determined as 55.2 ± 5.4 µM. This compound also gave a CC50 at 4 days in series [3] of 98 ± 2.2 µM.
Consider `Cc1nc(C(NC(=O)c2ccc(-c3ccc4c(c3)OCO4)[nH]2)C(C)(C)N)sc1CO` (stereo not drawn) [NBD-14117, N-(2-amino-1-(5-(hydroxymethyl)-4-methylthiazol-2-yl)-2-methylpropyl)-5-(benzo[d][1,3]dioxol-5-yl)-1H-pyrrole-2-carboxamide], for which the 50% cytotoxic concentration (CC50) in series [5] stood at 66.9 ± 1.4 µM; in series [7], 98 ± 1.5 µM. Besides, the IC50 in series [6] was 2.5 ± 1 µM.
In series [2], `CC(C)(N)C(NC(=O)c1ccc(-c2ccc3c(c2)OCO3)[nH]1)c1ncc(CO)s1` (stereo not drawn) [NBD-14118, N-(2-amino-1-(5-(hydroxymethyl)thiazol-2-yl)-2-methylpropyl)-5-(benzo[d][1,3]dioxol-5-yl)-1H-pyrrole-2-carboxamide] had a half-maximal cytotoxic concentration (CC50) at 3 days of 64.3 ± 3.7 µM. In addition, the CC50 at 4 days in series [3] stood at 123 ± 10.5 µM.
Regarding `CC(C)(N)C(NC(=O)c1ccc(-c2ccc3c(c2)OCO3)[nH]1)c1ncc(CO)s1` (stereo not drawn) [NBD-14119, N-(2-amino-1-(5-(hydroxymethyl)thiazol-2-yl)-2-methylpropyl)-5-(benzo[d][1,3]dioxol-5-yl)-1H-pyrrole-2-carboxamide], the cytotoxic concentration (CC50) in series [5] was determined as 69.2 ± 3.8 µM; in series [7] it was 106 ± 4.4 µM. In addition, the IC50 in series [6] turned out to be 2.8 ± 0.9 µM. In addition, the “improvement in antiviral activity/potency compared with NBD-14123” value in series [4] is reported as ~ 2.3 fold.
With `NCC(NC(=O)c1ccc(-c2ccc3c(c2)OCO3)[nH]1)c1ncc(CO)s1` (stereo not drawn) [NBD-14122, N-(2-amino-1-(5-(hydroxymethyl)thiazol-2-yl)ethyl)-5-(benzo[d][1,3]dioxol-5-yl)-1H-pyrrole-2-carboxamide], the CC50 in series [5] came to 154.4 ± 1.5 µM; in series [7] it was 183 ± 3 µM. The concentration for half-maximal inhibition (IC50) in series [6] was determined as 5.1 ± 0.4 µM.
`NCC(NC(=O)c1ccc(-c2ccc3nsnc3c2)[nH]1)c1ncc(CO)s1` (stereo not drawn) [NBD-14126, N-(2-amino-1-(5-(hydroxymethyl)thiazol-2-yl)ethyl)-5-(benzo[c][1,2,5]thiadiazol-5-yl)-1H-pyrrole-2-carboxamide] registered a half-maximal cytotoxic concentration (CC50) at 3 days in series [2] of 79.9 ± 1 µM. Besides, the “cytotoxicity higher compared with the parent compounds” value in series [5] is “about 1.5 fold”. The CC50 at 4 days in series [3] worked out at 117 ± 4.3 µM. The “improvement in antiviral activity compared with NBD-14122” value in series [4] is given as “about 2.8 fold”.
On to `NCC(NC(=O)c1ccc(-c2ccc3nsnc3c2)[nH]1)c1ncc(CO)s1` (stereo not drawn) [NBD-14127, N-(2-amino-1-(5-(hydroxymethyl)thiazol-2-yl)ethyl)-5-(benzo[c][1,2,5]thiadiazol-5-yl)-1H-pyrrole-2-carboxamide], for which, in series [5], the “cytotoxicity higher compared with the parent compounds” value is given as “about 1.5 fold” and the CC50 came to 96.7 ± 2.9 µM. The half-inhibitory concentration (IC50) in series [6] is 7.3 ± 1.5 µM. In addition, the CC50 in series [7] came to 137 ± 1.5 µM. Moreover, in series [4], the “improvement in antiviral activity/potency compared with NBD-14123” value is ~ 1.6 fold.
Compound `CC1(C)Oc2ccc(-c3ccc(C(=O)NC(CN)c4ncc(CO)s4)[nH]3)cc2O1` (stereo not drawn) [NBD-14133, N-(2-amino-1-(5-(hydroxymethyl)thiazol-2-yl)ethyl)-5-(2,2-dimethylbenzo[d][1,3]dioxol-5-yl)-1H-pyrrole-2-carboxamide] returned a CC50 at 3 days in series [2] of 64 ± 1.2 µM. Moreover, it took 96.5 ± 1.2 µM to reach half-maximal cytotoxicity in series [3] (CC50 at 4 days). Besides, the “antiviral activity (in words)” value in series [4] is “lost their antiviral potency”.
Turning to `CC1(C)Oc2ccc(-c3ccc(C(=O)NC(CN)c4ncc(CO)s4)[nH]3)cc2O1` (stereo not drawn) [NBD-14134, N-(2-amino-1-(5-(hydroxymethyl)thiazol-2-yl)ethyl)-5-(2,2-dimethylbenzo[d][1,3]dioxol-5-yl)-1H-pyrrole-2-carboxamide], the figures for the 50% cytotoxic concentration (CC50) in series [5] and in series [7] were 61.1 ± 1.4 µM and 89.3 ± 1.3 µM, respectively. In series [6], the IC50 worked out at 15.3 ± 5 µM. Besides, the “antiviral activity (in words)” value in series [4] was “lost their antiviral potency”.
Take `CNCC(NC(=O)c1ccc(-c2ccc3c(c2)OCO3)[nH]1)c1ncc(CO)s1` (stereo not drawn) [NBD-14139, 5-(benzo[d][1,3]dioxol-5-yl)-N-(1-(5-(hydroxymethyl)thiazol-2-yl)-2-(methylamino)ethyl)-1H-pyrrole-2-carboxamide]: the half-maximal cytotoxic concentration (CC50) at 3 days in series [2] was 149 ± 11.3 µM. Besides, half-maximal cytotoxicity in series [3] (CC50 at 4 days) was put at 178 ± 8 µM.
On to `CNCC(NC(=O)c1ccc(-c2ccc3c(c2)OCO3)[nH]1)c1ncc(CO)s1` (stereo not drawn) [NBD-14140, 5-(benzo[d][1,3]dioxol-5-yl)-N-(1-(5-(hydroxymethyl)thiazol-2-yl)-2-(methylamino)ethyl)-1H-pyrrole-2-carboxamide], for which the results for the CC50 in series [5] and in series [7] were 153 ± 11.5 µM and 173 ± 8 µM, respectively. Further, the IC50 in series [6] came out at 9.32 ± 2.8 µM.
In series [2], `NCC(NC(=O)c1ccc(-c2ccc3c(c2)OC(F)(F)O3)[nH]1)c1ncc(CO)s1` (stereo not drawn) [NBD-14144, N-(2-amino-1-(5-(hydroxymethyl)thiazol-2-yl)ethyl)-5-(2,2-difluorobenzo[d][1,3]dioxol-5-yl)-1H-pyrrole-2-carboxamide] came in with a CC50 at 3 days of 37.9 ± 2.4 µM. Also, the cytotoxicity became higher in series [5] is listed as ~ 3.9 fold. Further, in series [3], the CC50 at 4 days was determined as 43.4 ± 3.6 µM. The “improvement in antiviral activity compared with NBD-14122” value in series [4] is listed as ~ 4.5 fold.
As to `NCC(NC(=O)c1ccc(-c2ccc3c(c2)OC(F)(F)O3)[nH]1)c1ncc(CO)s1` (stereo not drawn) [NBD-14145, N-(2-amino-1-(5-(hydroxymethyl)thiazol-2-yl)ethyl)-5-(2,2-difluorobenzo[d][1,3]dioxol-5-yl)-1H-pyrrole-2-carboxamide], in series [5], the cytotoxicity became higher is on record as ~ 3.9 fold. Also, the values for the CC50 in series [5] and in series [7] were 38.7 ± 1.3 µM and 41 ± 2.7 µM, respectively. The concentration for half-maximal inhibition (IC50) in series [6] worked out at 3.1 ± 0.5 µM. In addition, the “improvement in antiviral activity” value in series [4] (di-fluoro at position 2 of 1,3-benzodioxole, comparator not stated) is ~ 1.7 fold.
In the case of `CNCC(NC(=O)c1ccc(-c2ccc3c(c2)OCO3)[nH]1)c1nc(CO)cs1` (stereo not drawn) [NBD-14158, 5-(benzo[d][1,3]dioxol-5-yl)-N-(1-(4-(hydroxymethyl)thiazol-2-yl)-2-(methylamino)ethyl)-1H-pyrrole-2-carboxamide], in series [2], the 50% cytotoxic concentration (CC50) at 3 days is 157 ± 7.8 µM. Further, in series [6], the IC50 is 9.5 ± 0.5 µM. This compound gave a CC50 at 4 days in series [3] of 192 ± 4.2 µM.
In series [2], `NCC(NC(=O)c1ccc(-c2ccc3c(c2)OCO3)[nH]1)c1nc(CO)cs1` (stereo not drawn) [NBD-14172, N-(2-amino-1-(4-(hydroxymethyl)thiazol-2-yl)ethyl)-5-(benzo[d][1,3]dioxol-5-yl)-1H-pyrrole-2-carboxamide] returned a 50% cytotoxic concentration (CC50) at 3 days of 92.3 ± 2.9 µM. The IC50 in series [6] is 2.4 ± 0.3 µM. In series [3], this compound yielded a 50% cytotoxic concentration (CC50) at 4 days of 156 ± 14.3 µM. In series [4], the “improvement in antiviral activity/potency compared with NBD-14123” value was “about 1.5 fold”.
Regarding `NCC(NC(=O)c1ccc(-c2ccc3c(c2)OCO3)[nH]1)c1nc(CO)cs1` (stereo not drawn) [NBD-14173, N-(2-amino-1-(4-(hydroxymethyl)thiazol-2-yl)ethyl)-5-(benzo[d][1,3]dioxol-5-yl)-1H-pyrrole-2-carboxamide], the CC50 was 105 ± 7.9 µM in series [5] and 176 ± 4.3 µM in series [7]. Besides, the half-maximal inhibitory concentration (IC50) in series [6] was 8.2 ± 2.7 µM.
